Results on 6 molecules are retold here after patent publication US10370405B2, “C-3 novel triterpenone with C-28 amide derivatives as HIV inhibitors” (HETERO LABS LIMITED, priority 2016, dated 2019).

SMILES strings stand for the structures. Read-outs that look alike come from different tables or passages of the source.

One data set deals with HIV-1 strain 92HT599. In words: Antiviral activity: p24 estimation in MT2 cells infected with HIV-1. The format is cell-based. The settings on record: for IC50: Human immunodeficiency virus 1, MT2; for inhibition at 0.01 µM / inhibition at 0.1 µM / inhibition at 1 µM: Human immunodeficiency virus 1, MT2 cells, HIV-1 92HT599, p24, ~96 hours. Here is the method: MT2 cells were infected with HIV-1 strain 92HT599 (10 TCID 50/30000 cells). The infected cells were plated at the concentration of ˜30 000 cells per well in 96 well plate. Test compound was added to the micro plate in defined format with the final concentration of DMSO (vehicle) is not more than 1%. Incubation was carried out in CO2 incubator for ˜96 hours for viral infection. At the end of incubation period an aliquot from each well was taken for p24 estimation. The quantitation of p24 is an index for antiviral activity of the compound. Percent inhibition was calculated with reference to control values (vehicle controls). P-24 estimation was carried out using Advance biosciences kit as per the procedure detailed by supplier.

Data set [1] can be described thus: Single dose oral pharmacokinetic study. The data set is classed as in vivo. The settings on record: mouse, plasma; Mice oral PK @30 mg/kg. Here is the method:
The test item was administered through oral route to animals (rat/mice) at 30 mg/kg dose in a suitable vehicle (10% Solutol+20% PEG) at 10 ml/kg dose volume. Blood samples (˜50 μL at each time point) were collected from retro-orbital plexus using K3 EDTA as anticoagulant in eppendorf tubes at defined time intervals 30 minutes, 1 hour, 2 hour, 4 hour, 8 hour, 24 hour & 48 hour under light ether anaesthesia. The samples were centrifuged at 3500×g to separate plasma and stored at −80° C. until analysis. Plasma […] for Mice were processed as per described in sample preparation.
Standard solutions of the test compound 1 mg/mL solutions were prepared in DMSO and further dilutions were made in methanol. The calibration curve samples for LCMSMS analysis were prepared by spiking 25 μl of Mice plasma with 2.5 μl and of the appropriate working standard solution to obtain final concentrations 0.078, 0.156, 0.312, 0.625, 1.25, 2.5, 5, 10, 20 & 40 µg/ml. To the test compound plasma extraction was carried out using Acetonitrile precipitation. After reconstitution with solvent (50% Acetonitrile in Buffer) samples were analyzed by LCMSMS to get the concentrations to calculate PK Parameters.

[2] abbreviates: 0% serum, read-out: Antiviral activity IC50 (nM) 0%.
[3] abbreviates: read-out: Antiviral activity IC50 (nM) 40% serum.

Experimental for in vitro: On day 1 calculate the number of cells required for the assay and seed 3×10^4 cells in 200 μl per well. Weigh the compound and dissolve it in DMSO to get 10 mM stock which is further diluted to 3 mM and 1 mM. The drugs from these stocks were added to plate to get final concentration of 100 μM, 30 μM and 10 μM. […] Incubate for 4 days in 5% CO2 incubator at 37° C. On day 4, 100 μl of medium was removed from each well without disturbing the cells. Add 10 μl of MTT reagent and incubate for 4 hours at 5% CO2 incubator at 37° C. for formation of crystals. Add 200 μl of 0.1N acidic isopropanol to dissolve the crystals and read the plate at 590 nm.

For the molecule `CC(C)C1=C2[C@H]3CC[C@@H]4[C@@]5(C)CC[C@H](OC(=O)[C@H]6C[C@@H](C(=O)O)C6(C)C)C(C)(C)[C@@H]5CC[C@@]4(C)[C@]3(C)CC[C@@]2(C(=O)N2CCCC2c2ncc(-c3ccccc3)[nH]2)CC1=O` (stereo partly drawn) [Example 1, (1R,3S)-3-((((3aR,5aR,5bR,7aR,9S,11aR,11bR,13aS)-1-isopropyl-5a,5b,8,8,11a-pentamethyl-2-oxo-3a-((S)-2-(5-phenyl-1H-imidazol-2-yl)pyrrolidine-1-carbonyl)-3,3a,4,5,5a,5b,6,7,7a,8,9,10,11,11a,11b,12,13,13a-octadecahydro-2H-cyclopenta[a]chrysen-9-yl)oxy)carbonyl)-2,2-dimethlcyclobutane-1-carboxylic acid], the IC50 (as a rule, the concentration at which inhibition is half-maximal) with HIV-1 strain 92HT599 (setting [2]) was 5.21 nM. In addition, the IC50 in the data set with HIV-1 strain 92HT599 (setting [3]) was 3.92 nM. Moreover, in the data set on HIV-1 strain 92HT599, the inhibition (as a rule, the drop in the measured response relative to a control, in per cent) at 0.01 µM is 100%; the inhibition at 0.1 µM was 98%; the inhibition at 1 µM was 99%. Also, in data set [1], the AUC(0-t) (in general, the area under the concentration-time curve up to a stated or last time point) was found to be 69800 ng·h/mL and the Cmax – broadly, the maximum level reached in the sampled fluid or tissue – is 8650 ng/mL. Also, in the data set “in vitro”, the viability (in general, a per cent measure of how many cells are alive, often set against a control) at 4 days, 10 μM worked out at 80%; the viability at 4 days, 30 μM amounted to 67%; the viability at 4 days, 100 μM was 62%.

On to `CC(C)C1=C2[C@H]3CC[C@@H]4[C@@]5(C)CC[C@H](OC(=O)[C@H]6C[C@@H](C(=O)O)C6(C)C)C(C)(C)[C@@H]5CC[C@@]4(C)[C@]3(C)CC[C@@]2(C(=O)N2CCC[C@H]2c2ncc(-c3ccc(F)cc3)[nH]2)CC1=O` [Example 2, (1R,3S)-3-((((3aR,5aR,5bR,7aR,9S,11aR,11bR,13aS)-3a-((S)-2-(5-(4-fluorophenyl)-1H-imidazol-2-yl)pyrrolidine-1-carbonyl)-1-isopropyl-5a,5b,8,8,11a-pentamethyl-2-oxo-3,3a,4,5,5a,5b,6,7,7a,8,9,10,11,11a,11b,12,13,13a-octadecahydro-2H-cyclopenta[a]chrysen-9-yl)oxy)carbonyl)-2,2-dimethlcyclobutane-1-carboxylic acid], for which, in the data set on HIV-1 strain 92HT599 (setting [2]), the IC50 was 3.89 nM. The IC50 with HIV-1 strain 92HT599 (setting [3]) was 51.2 nM. In addition, in the data set on HIV-1 strain 92HT599, the inhibition at 0.01 µM is 60%, the inhibition at 0.1 µM was 100% and the inhibition at 1 µM is 100%. Further, in data set [1], the AUC(0-t) is 148000 ng·h/mL and the Cmax is 11900 ng/mL. In “in vitro”, the viability at 4 days, 10 μM was found to be 100%; the viability at 4 days, 30 μM came out at 100%; the viability at 4 days, 100 μM turned out to be 90%.

In the case of `CC(C)C1=C2[C@H]3CC[C@@H]4[C@@]5(C)CC[C@H](OC(=O)[C@H]6C[C@@H](C(=O)O)C6(C)C)C(C)(C)[C@@H]5CC[C@@]4(C)[C@]3(C)CC[C@@]2(C(=O)N2CCC[C@H]2c2ncc(-c3cccnc3)[nH]2)CC1=O` [Example 3, (1R,3S)-3-((((3aR,5aR,5bR,7aR,9S,11aR,11bR,13aS)-1-isopropyl-5a,5b,8,8,11a-pentamethyl-2-oxo-3a-((S)-2-(5-(pyridin-3-yl)-1H-imidazol-2-yl)pyrrolidine-1-carbonyl)-3,3a,4,5,5a,5b,6,7,7a,8,9,10,11,11a,11b,12,13,13a-octadecahydro-2H-cyclopenta[a]chrysen-9-yl)oxy)carbonyl)-2,2-dimethlcyclobutane-1-carboxylic acid], the IC50 with HIV-1 strain 92HT599 (setting [2]) is 1.82 nM. Further, the IC50 in the data set with HIV-1 strain 92HT599 (setting [3]) was 0.81 nM. In the data set with HIV-1 strain 92HT599, the inhibition at 0.01 µM is 100%, the inhibition at 0.1 µM is 100% and the inhibition at 1 µM is 100%. In data set [1], this molecule gave an area under the curve AUC(0-t) of 48600 ng·h/mL and a Cmax of 8530 ng/mL. Moreover, in “in vitro”, the viability at 4 days, 10 μM was 98%; the viability at 4 days, 30 μM turned out to be 67%; the viability at 4 days, 100 μM was 45%.

Consider `CC(C)C1=C2[C@H]3CC[C@@H]4[C@@]5(C)CC[C@H](OC(=O)[C@H]6C[C@@H](C(=O)O)C6(C)C)C(C)(C)[C@@H]5CC[C@@]4(C)[C@]3(C)CC[C@@]2(C(=O)N2CC[C@@H](N3CCCC3)C2)CC1=O` [Example 4, (1R,3S)-3-((((3aR,5aR,5bR,7aR,9S,11aR,11bR,13aS)-3a-((R)-[1,3′-bipyrrolidine]-1′-carbonyl)-1-isopropyl-5a,5b,8,8,11a-pentamethyl-2-oxo-3,3a,4,5,5a,5b,6,7,7a,8,9,10,11,11a,11b,12,13,13a-octadecahydro-2H-cyclopenta[a]chrysen-9-yl)oxy)carbonyl)-2,2-dimethylcyclobutane-1-carboxylic acid], for which the IC50 in the data set with HIV-1 strain 92HT599 (setting [2]) is 0.68 nM. Also, the IC50 in the data set with HIV-1 strain 92HT599 (setting [3]) is 54.5 nM. Moreover, in the data set on HIV-1 strain 92HT599, the inhibition at 0.01 µM is 100%, the inhibition at 0.1 µM was 100% and the inhibition at 1 µM was 100%. In “in vitro”, this molecule yielded a viability at 4 days, 10 μM of 62%; a viability at 4 days, 30 μM of 6%; a viability at 4 days, 100 μM of 2%.

In the case of `CC(C)C1=C2[C@H]3CC[C@@H]4[C@@]5(C)CC[C@H](OC(=O)[C@H]6C[C@@H](C(=O)O)C6(C)C)C(C)(C)[C@@H]5CC[C@@]4(C)[C@]3(C)CC[C@@]2(C(=O)N2CCC[C@H]2CN2CCC[C@H]2CO)CC1=O` [Example 5, (1R,3S)-3-((((3aR,5aR,5bR,7aR,9S,11aR,11bR,13aS)-3a-((S)-2-(((S)-2-(hydroxymethyl)pyrrolidin-1-yl)methyl)pyrrolidine-1-carbonyl)-1-isopropyl-5a,5b,8,8,11a-pentamethyl-2-oxo-3,3a,4,5,5a,5b,6,7,7a,8,9,10,11,11a,11b,12,13,13a-octadecahydro-2H-cyclopenta[a]chrysen-9-yl)oxy)carbonyl)-2,2-dimethlcyclobutane-1-carboxylic acid], the IC50 in the data set on HIV-1 strain 92HT599 (setting [2]) is 0.93 nM. In the data set with HIV-1 strain 92HT599 (setting [3]), the IC50 was 25.5 nM. For the same molecule, in the data set on HIV-1 strain 92HT599, the inhibition at 0.01 µM is 100%, the inhibition at 0.1 µM was 100% and the inhibition at 1 µM was 100%. In the data set “in vitro”, this molecule displayed a viability at 4 days, 10 μM of 70%; a viability at 4 days, 30 μM of 70%; a viability at 4 days, 100 μM of 73%.

Turning to `CC(C)C1=C2[C@H]3CC[C@@H]4[C@@]5(C)CC[C@H](OC(=O)[C@H]6C[C@@H](C(=O)O)C6(C)C)C(C)(C)[C@@H]5CC[C@@]4(C)[C@]3(C)CC[C@@]2(C(=O)N2CCC[C@H]2CN2CCC(F)CC2)CC1=O` [Example 10, (1R,3S)-3-((((3aR,5aR,5bR,7aR,9S,11aR,11bR,13aS)-3a-((S)-2-((4-fluoropiperidin-1-yl)methyl)pyrrolidine-1-carbonyl)-1-isopropyl-5a,5b,8,8,11a-pentamethyl-2-oxo-3,3a,4,5,5a,5b,6,7,7a,8,9,10,11,11a,11b,12,13,13a-octadecahydro-2H-cyclopenta[a]chrysen-9-yl)oxy)carbonyl)-2,2-dimethylcyclobutane-1-carboxylic acid], the IC50 with HIV-1 strain 92HT599 (setting [2]) is 1.06 nM. Moreover, the IC50 with HIV-1 strain 92HT599 (setting [3]) is 0.93 nM. Besides, in the data set on HIV-1 strain 92HT599, the inhibition at 0.01 µM is 97%, the inhibition at 0.1 µM is 100% and the inhibition at 1 µM is 100%. For the same molecule, in the data set “in vitro”, the viability at 4 days, 10 μM is 31%; the viability at 4 days, 30 μM was 4%; the viability at 4 days, 100 μM amounted to 4%.
